Tests used:
Format in all cases: functional, organism-based
Rattus norvegicus [1] = experiment: Concentration at which decrease blood pressure of anesthetized rat when administered intravenously; 50-6400 ug/kg body weight
Rattus norvegicus [2] = experiment: Concentration at which no change in heart rate of anesthetized rat when administered intravenously was observed; 50-6400 ug/kg body weight
Rattus norvegicus [3] = experiment: Concentration at which increase cardiac inotropism of anesthetized rat when administered intravenously was observed; 50-6400 ug/kg body weight
Rattus norvegicus [4] = experiment: Concentration at which increase in tidal volume of anesthetized rat when administered intravenously was observed; 50-6400 ug/kg body weight
Rattus norvegicus [5] = experiment: Concentration at which increase in respiratory frequency of anesthetized rat when administered intravenously was observed; 50-6400 ug/kg body weight

Measured: Concentration

COc1ccc(/C=C\C(=O)NCCCC/N=C(\N)NCC=C(C)C)cc1OC
50 µg/kg: Rattus norvegicus [1] | Rattus norvegicus [2] | Rattus norvegicus [3] | Rattus norvegicus [4] | Rattus norvegicus [5]

From ChEMBL document CHEMBL1126416, “Caracasanamide, a novel hypotensive agent from Verbesina caracasana” (Bioorg Med Chem Lett, 1992)
